Source: the NIST ThermoML archive (doi:10.1021/je8002699)
Numbers after ± are expanded uncertainties.

Legend:
[1] = refractive index (Na D-line) (dimensionless); xn = mol fraction of the nth substance listed; conditions: 101 kPa, Liquid
[2] = xn = mol fraction of the nth substance listed; conditions: for mass density / speed of sound / viscosity: 101 kPa, Liquid

CC(=O)CC(C)(C)O [4-hydroxy-4-methylpentan-2-one] + CCc1ccccc1
Conditions | mass density, [2] [kg/m3] | refractive index, [1] | speed of sound, [2] [m/s] | surface tension liquid-gas, [2] [mN/m] | viscosity, [2] [mPa·s]
303.15 K, x1 = 0.1814 | 880.9 ± 4 | 1.4864 ± 0.0026 | 1322 ± 6 | 29.92 ± 0.85 | 1.02 ± 0.075
303.15 K, x1 = 0.2621 | 886.6 ± 4 | 1.4813 ± 0.0026 | 1316 ± 6 | 29.88 ± 0.85 | 1.191 ± 0.086
303.15 K, x1 = 0.3445 | 892.5 ± 4 | 1.4753 ± 0.0026 | 1311 ± 6 | 29.84 ± 0.85 | 1.35 ± 0.097
303.15 K, x1 = 0.4219 | 898 ± 4.1 | 1.4701 ± 0.0026 | 1305 ± 6 | 29.8 ± 0.85 | 1.511 ± 0.11
303.15 K, x1 = 0.5447 | 906.5 ± 4.1 | 1.4599 ± 0.0026 | 1296 ± 6 | 29.76 ± 0.85 | 1.752 ± 0.12
303.15 K, x1 = 0.6624 | 914.7 ± 4.1 | 1.4505 ± 0.0025 | 1286 ± 6 | 29.71 ± 0.85 | 2.001 ± 0.14
303.15 K, x1 = 0.7667 | 922 ± 4.2 | 1.4425 ± 0.0025 | 1277 ± 6 | 29.62 ± 0.85 | 2.266 ± 0.16
303.15 K, x1 = 0.8388 | 926.5 ± 4.2 | 1.4373 ± 0.0025 | 1271 ± 6 | 29.58 ± 0.85 | 2.433 ± 0.17
303.15 K, x1 = 0.9219 | 931.5 ± 4.3 | 1.43 ± 0.0025 | 1264 ± 6 | 29.5 ± 0.85 | 2.66 ± 0.18
303.15 K, x1 = 1 | 936 ± 4.3 | 1.4239 ± 0.0025 | 1256 ± 6 | 29.44 ± 0.85 | 2.89 ± 0.19
313.15 K, x1 = 0.1814 | 856 ± 4 | 1.479 ± 0.0026 | 1271 ± 6 | 29.04 ± 0.83 | 0.9211 ± 0.069
313.15 K, x1 = 0.2621 | 861.8 ± 4 | 1.4741 ± 0.0026 | 1265 ± 6 | 29.04 ± 0.84 | 1.066 ± 0.078
313.15 K, x1 = 0.3445 | 867.8 ± 4.1 | 1.469 ± 0.0026 | 1257 ± 6 | 29.03 ± 0.84 | 1.234 ± 0.089
313.15 K, x1 = 0.4219 | 873.3 ± 4.1 | 1.4637 ± 0.0026 | 1250 ± 6 | 29.03 ± 0.84 | 1.4 ± 0.1
313.15 K, x1 = 0.5447 | 882.2 ± 4.2 | 1.454 ± 0.0025 | 1237 ± 6 | 29.03 ± 0.84 | 1.501 ± 0.11
313.15 K, x1 = 0.6624 | 890.8 ± 4.2 | 1.4458 ± 0.0025 | 1224 ± 5 | 29.03 ± 0.84 | 1.688 ± 0.12
313.15 K, x1 = 0.7667 | 897.5 ± 4.3 | 1.4384 ± 0.0025 | 1212 ± 5 | 29.03 ± 0.84 | 1.911 ± 0.13
313.15 K, x1 = 0.8388 | 902.2 ± 4.3 | 1.4335 ± 0.0025 | 1204 ± 5 | 29 ± 0.84 | 2.377 ± 0.16
313.15 K, x1 = 0.9219 | 907.6 ± 4.3 | 1.4264 ± 0.0025 | 1194 ± 5 | 28.95 ± 0.84 | 2.511 ± 0.17
313.15 K, x1 = 1 | 912.1 ± 4.4 | 1.4198 ± 0.0025 | 1183 ± 5 | 28.92 ± 0.84 | 2.791 ± 0.19
323.15 K, x1 = 0.1814 | 845.9 ± 4.2 | 1.4721 ± 0.0026 | 1192 ± 5 | 27.97 ± 0.81 | 0.7842 ± 0.06
323.15 K, x1 = 0.2621 | 851.6 ± 4.2 | 1.4675 ± 0.0026 | 1186 ± 5 | 27.9 ± 0.81 | 0.8814 ± 0.067
323.15 K, x1 = 0.3445 | 857.5 ± 4.3 | 1.4624 ± 0.0026 | 1180 ± 5 | 27.82 ± 0.81 | 0.9901 ± 0.074
323.15 K, x1 = 0.4219 | 863 ± 4.3 | 1.4518 ± 0.007 | 1175 ± 5 | 27.75 ± 0.81 | 1.011 ± 0.075
323.15 K, x1 = 0.5447 | 871.5 ± 4.4 | 1.451 ± 0.0025 | 1165 ± 5 | 27.64 ± 0.8 | 1.201 ± 0.087
323.15 K, x1 = 0.6624 | 879.9 ± 4.4 | 1.4433 ± 0.0025 | 1156 ± 5 | 27.53 ± 0.8 | 1.354 ± 0.097
323.15 K, x1 = 0.7667 | 886.6 ± 4.5 | 1.4363 ± 0.0025 | 1146 ± 5 | 27.44 ± 0.8 | 1.521 ± 0.11
323.15 K, x1 = 0.8388 | 891.3 ± 4.5 | 1.4285 ± 0.0025 | 1138 ± 5 | 27.35 ± 0.8 | 1.812 ± 0.13
323.15 K, x1 = 0.9219 | 896.9 ± 4.5 | 1.4225 ± 0.0025 | 1130 ± 5 | 27.24 ± 0.8 | 2.082 ± 0.14
323.15 K, x1 = 1 | 901 ± 4.6 | 1.4151 ± 0.0025 | 1121 ± 5 | 27.12 ± 0.8 | 2.67 ± 0.18

CC(=O)CC(C)(C)O [4-hydroxy-4-methylpentan-2-one] + O=[N+]([O-])c1ccccc1
Conditions | mass density, [2] [kg/m3] | refractive index, [1] | speed of sound, [2] [m/s] | surface tension liquid-gas, [2] [mN/m] | viscosity, [2] [mPa·s]
303.15 K, x1 = 0.1248 | 1163.9 ± 9.9 | 1.5377 ± 0.005 | 1395 ± 6 | 39.8 ± 1.1 | 2.022 ± 0.093
303.15 K, x1 = 0.2389 | 1130.2 ± 9.6 | 1.5245 ± 0.005 | 1378 ± 6 | 38.7 ± 1.1 | 2.161 ± 0.099
303.15 K, x1 = 0.3446 | 1102.1 ± 9.4 | 1.5113 ± 0.005 | 1363 ± 6 | 37.5 ± 1 | 2.282 ± 0.1
303.15 K, x1 = 0.4921 | 1062 ± 9 | 1.4931 ± 0.005 | 1341 ± 6 | 35.9 ± 1 | 2.45 ± 0.11
303.15 K, x1 = 0.5853 | 1038 ± 8.8 | 1.4822 ± 0.005 | 1327 ± 6 | 34.7 ± 0.97 | 2.562 ± 0.12
303.15 K, x1 = 0.6427 | 1023 ± 8.7 | 1.474 ± 0.005 | 1317 ± 6 | 34 ± 0.96 | 2.624 ± 0.12
303.15 K, x1 = 0.7532 | 995.6 ± 8.4 | 1.4601 ± 0.005 | 1298 ± 6 | 32.7 ± 0.93 | 2.735 ± 0.12
303.15 K, x1 = 0.8226 | 979.1 ± 8.3 | 1.45 ± 0.005 | 1287 ± 6 | 31.7 ± 0.9 | 2.791 ± 0.13
303.15 K, x1 = 0.9349 | – | 1.43 ± 0.005 | 1263 ± 6 | 29.5 ± 0.85 | 2.889 ± 0.13
303.15 K, x1 = 1 | 936 ± 7.9 | 1.4239 ± 0.005 | 1256 ± 6 | 29.44 ± 0.85 | 2.89 ± 0.13
313.15 K, x1 = 0.1248 | 1157.7 ± 11 | 1.5351 ± 0.005 | 1304 ± 6 | 37.45 ± 1 | 1.752 ± 0.082
313.15 K, x1 = 0.2389 | 1120.9 ± 10 | 1.521 ± 0.005 | 1290 ± 6 | 36.6 ± 1 | 1.931 ± 0.089
313.15 K, x1 = 0.3446 | 1088.8 ± 10 | 1.508 ± 0.005 | 1277 ± 6 | 35.6 ± 0.99 | 2.137 ± 0.098
313.15 K, x1 = 0.4921 | 1046.3 ± 9.6 | 1.4897 ± 0.005 | 1258 ± 6 | 34.3 ± 0.96 | 2.412 ± 0.11
313.15 K, x1 = 0.5853 | 1019.9 ± 9.4 | 1.4782 ± 0.005 | 1244 ± 6 | 33.4 ± 0.94 | 2.541 ± 0.12
313.15 K, x1 = 0.6427 | 1004.4 ± 9.2 | 1.4706 ± 0.005 | 1236 ± 6 | 32.8 ± 0.93 | 2.661 ± 0.12
313.15 K, x1 = 0.7532 | 975.5 ± 8.9 | 1.4548 ± 0.005 | 1221 ± 5 | 31.7 ± 0.9 | 2.741 ± 0.12
313.15 K, x1 = 0.8226 | 957.8 ± 8.7 | 1.4456 ± 0.005 | 1211 ± 5 | 31 ± 0.89 | 2.764 ± 0.12
313.15 K, x1 = 0.9349 | – | 1.4261 ± 0.005 | 1190 ± 5 | 29.4 ± 0.85 | 2.79 ± 0.13
313.15 K, x1 = 1 | 912 ± 8.3 | 1.4198 ± 0.005 | 1183 ± 5 | 28.92 ± 0.84 | 2.791 ± 0.13
323.15 K, x1 = 0.1248 | 1146.5 ± 11 | 1.5304 ± 0.005 | 1212 ± 5 | 35.8 ± 0.99 | 1.658 ± 0.078
323.15 K, x1 = 0.2389 | 1109.6 ± 11 | 1.5268 ± 0.01 | 1201 ± 5 | 35 ± 0.97 | 1.843 ± 0.086
323.15 K, x1 = 0.3446 | 1077.5 ± 11 | 1.5048 ± 0.005 | 1192 ± 5 | 34.3 ± 0.96 | 2.018 ± 0.093
323.15 K, x1 = 0.4921 | 1035 ± 10 | 1.486 ± 0.005 | 1178 ± 5 | 33.11 ± 0.93 | 2.32 ± 0.11
323.15 K, x1 = 0.5853 | 999.9 ± 9.9 | 1.475 ± 0.005 | 1169 ± 5 | 32.3 ± 0.91 | 2.492 ± 0.11
323.15 K, x1 = 0.6427 | 993.1 ± 9.8 | 1.4675 ± 0.005 | 1163 ± 5 | 31.8 ± 0.9 | 2.579 ± 0.12
323.15 K, x1 = 0.7532 | 964.3 ± 9.5 | 1.4503 ± 0.005 | 1152 ± 5 | – | 2.651 ± 0.12
323.15 K, x1 = 0.8226 | 946.6 ± 9.3 | 1.4412 ± 0.005 | 1144 ± 5 | 30.1 ± 0.87 | 2.661 ± 0.12
323.15 K, x1 = 0.9349 | 910 ± 8.9 | 1.4215 ± 0.005 | 1128 ± 5 | 28.8 ± 0.84 | 2.67 ± 0.12
323.15 K, x1 = 1 | 901 ± 8.9 | 1.4151 ± 0.005 | 1121 ± 5 | 28.12 ± 0.82 | 2.67 ± 0.12
